Experimental data: ChEMBL document CHEMBL1137721, “Modeling the activity of furin inhibitors using artificial neural network” (Eur J Med Chem, 2009)

Biological target: Furin (Homo sapiens, UniProt P09958)
Assay: Inhibition of human recombinant furin-dependent anthrax protective antigen processing

Furin, sequence (P09958 whole entry): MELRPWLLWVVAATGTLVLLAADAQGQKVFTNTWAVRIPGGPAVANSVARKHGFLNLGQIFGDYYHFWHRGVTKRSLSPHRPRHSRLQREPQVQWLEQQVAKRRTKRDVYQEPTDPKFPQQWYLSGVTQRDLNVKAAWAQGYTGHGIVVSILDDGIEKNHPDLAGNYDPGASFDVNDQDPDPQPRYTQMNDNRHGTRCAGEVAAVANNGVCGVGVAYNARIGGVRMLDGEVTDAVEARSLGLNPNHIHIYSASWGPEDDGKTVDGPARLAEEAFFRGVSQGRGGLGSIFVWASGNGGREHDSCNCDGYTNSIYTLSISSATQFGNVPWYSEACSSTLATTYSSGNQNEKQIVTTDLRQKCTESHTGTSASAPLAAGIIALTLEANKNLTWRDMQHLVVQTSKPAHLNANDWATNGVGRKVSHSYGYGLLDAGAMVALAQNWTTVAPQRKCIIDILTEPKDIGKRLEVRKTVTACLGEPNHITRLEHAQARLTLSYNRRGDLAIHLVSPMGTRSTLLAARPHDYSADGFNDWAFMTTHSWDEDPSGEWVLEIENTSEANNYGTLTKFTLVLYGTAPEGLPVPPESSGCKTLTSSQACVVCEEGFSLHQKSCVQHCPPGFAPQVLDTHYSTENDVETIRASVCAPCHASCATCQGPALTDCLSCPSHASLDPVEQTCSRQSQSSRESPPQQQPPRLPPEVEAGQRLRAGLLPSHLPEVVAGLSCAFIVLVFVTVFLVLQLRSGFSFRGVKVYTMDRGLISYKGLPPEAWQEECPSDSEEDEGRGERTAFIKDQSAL

Row | Compound | Ki [nM]
1 | NC(N)=Nc1cnccc1O[C@H]1C[C@@H](Oc2ccncc2N=C(N)N)[C@H](N=C(N)N)C[C@@H]1N=C(N)N | 100000
2 | NC(N)=Nc1ccccc1O[C@H]1C[C@@H](Oc2ccccc2N=C(N)N)[C@H](N=C(N)N)C[C@@H]1N=C(N)N | 100000
3 | NC(N)=Nc1ccc(N[C@H]2C[C@@H](N=C(N)N)[C@H](Oc3ccc(N=C(N)N)cc3)C[C@@H]2Oc2ccc(N=C(N)N)cc2)cc1 | 46
4 | N=C(N)Nc1ccc(O[C@H]2C[C@@H](Oc3ccc(NC(=N)N)c4ccccc34)[C@H](NC(=N)N)C[C@@H]2NC(=N)N)cc1 | 6
5 | N=C(N)Nc1ccc(O[C@H]2C[C@@H](Oc3ccc(NC(=N)N)cc3NC(=N)N)[C@H](NC(=N)N)C[C@@H]2NC(=N)N)c(NC(=N)N)c1 | 169
6 | NC(N)=Nc1cccnc1O[C@H]1C[C@@H](Oc2ncccc2N=C(N)N)[C@H](N=C(N)N)C[C@@H]1N=C(N)N | 100000
7 | NC(N)=Nc1ccc(O[C@H]2C[C@@H](Oc3ccc(N=C(N)N)c4ccccc34)[C@H](N=C(N)N)C[C@@H]2N=C(N)N)c(N=C(N)N)c1 | 404
8 | N=C(N)Nc1ccc(NC(=O)O[C@H]2C[C@@H](OC(=O)Nc3ccc(NC(=N)N)cc3)[C@H](NC(=N)N)C[C@@H]2NC(=N)N)cc1 | 812
9 | N=C(N)Nc1ccc(O[C@H]2C[C@@H](Oc3ccc(NC(=N)N)cn3)[C@H](NC(=N)N)C[C@@H]2NC(=N)N)nc1 | 42
10 | N=C(N)Nc1ccccc1NC(=O)O[C@H]1C[C@@H](OC(=O)Nc2ccccc2NC(=N)N)[C@H](NC(=N)N)C[C@@H]1NC(=N)N | 100000
11 | NC(N)=Nc1ccc(N[C@H]2C[C@@H](N=C(N)N)[C@H](Oc3ccc(N=C(N)N)c4ccccc34)C[C@@H]2Oc2ccc(N=C(N)N)c3ccccc23)c2ccccc12 | 423
12 | NC(N)=Nc1cccc(NC(=O)O[C@H]2C[C@@H](OC(=O)Nc3cccc(N=C(N)N)c3)[C@H](N=C(N)N)C[C@@H]2N=C(N)N)c1 | 1770
13 | NC(N)=Nc1ccc(O[C@H]2C[C@@H](Oc3ccc(N=C(N)N)cc3)[C@H](N=C(N)N)C[C@@H]2N=C(N)N)cc1 | 12
14 | N=C(N)Nc1ccc(O[C@H]2C[C@@H](Oc3ccc(NC(=N)N)c4ccccc34)[C@H](NC(=N)N)C[C@@H]2NC(=N)N)c(N)c1 | 22
15 | NC(N)=Nc1ccc(O[C@@H]2C[C@H](Oc3ccc(N=C(N)N)cc3N=C(N)N)[C@@H](N=C(N)N)C[C@H]2N=C(N)N)cc1 | 89
16 | NC(N)=Nc1ccc(O[C@H]2C[C@@H](Oc3ccc(N=C(N)N)c4ccccc34)[C@H](N=C(N)N)C[C@@H]2N=C(N)N)c2ccccc12 | 69
17 | N=C(N)N[C@H]1C[C@@H](NC(=N)N)[C@H](Oc2ccc3nc(N)[nH]c3c2)C[C@@H]1Oc1ccc2nc(N)[nH]c2c1 | 100000
18 | NC(N)=N[C@H]1C[C@@H](N=C(N)N)[C@H](Oc2ccccn2)C[C@@H]1Oc1ccccn1 | 100000
